Data taken from patent US20200164005A1, “PHARMACEUTICAL COMPOSITIONS OF A BILE ACID DERIVATIVE AND MICROBIOME AND USES THEREOF” (Intercept Pharmaceuticals, Inc., priority 2017, published 2020).

Assays:
[1] = test system: gut microbiome gene families; experiment: Gene differential abundance analysis of stool metagenome (HUMAnN2, Uniref50/Uniref90, transposases); type: in vivo, human
Text: The adaptors, human reads contamination, and low quality sequences were removed from the raw sequencing data using software kneaddata. Trimmomatic (Bolger et al., Bioinformatics 30, 2114 (2014)) was invoked by kneaddata for removing adaptor sequence, trimming low quality bases, and removing low quality reads. Bowtie (Langmead and Salzberg, Nat. Methods 9, 357 (2012)) was invoked by kneaddata for human reads detection. • Removing sequencing noise: For each sample, if the abundance of one species was smaller than 0.05% of the maximum abundance of all species in the sample, it was considered as noise, and the abundance of this species in the sample was set as 0. • Imputing missing value (i.e. Os): Because log 2 transformation was needed in further analysis, adjustment factor (e) was added to the abundance matrix, where e equals 50% of the minimum non-zero abundance value of all samples. • Removing low abundance species: A species was removed if the relative abundance was lower than 0.1% in >=95% of samples. 128 species was kept for further analysis.
HUMAnN2 (Abubucker et al., PLoS Comput. Biol. 8, e1002358 (2012)) was used to calculate gene and pathway abundance from metagenomic sequencing data. Uniref50 (UniProt® Consortium, Nucleic Acids Res. 43, D204 (2015)) was used for gene family definition. MetaCyc (Caspi et al., Nucleic Acids Res. 42, D459 (2014)) and KEGG (Kanehisa and Goto, Nucleic Acids Res. 28, 27 (2000); Kanehisa et al., Nucleic Acids Res. 44, D457 (2016)) were used for pathway analysis. • Gene family identification: Initially, 989251 gene families were identified from the dataset by HUMAnN2. Quantile normalization was implemented. For each sample, the RPK values were added up till 90% percentile of all genes (normalization factor, nf). RPK value of each gene in each sample was then divided by the nf of the sample, and multiplied with the mean of nf of all samples. 683270 uncharacterized genes were removed. Genes undetected in over 90% of samples (101994) were removed. 203987 genes were kept. Due to the large number of genes identified, 25% of the most varying genes were selected for further analysis. The most varying genes were defined by the coefficient variation (cv=sd/mean) of log 2 transformed value. • MetaCyc pathway identification: HUMAnN2 identified 567 MetaCyc pathways from the dataset. Quantile normalization was then performed. For each sample, the abundance values were added up till 90% percentile of all pathways (normalization factor, nf). Each pathway abundance in each sample was divided by the nf of the sample, and then multiplied with the mean of nf for all samples. The low abundance pathways (52), which were not detected on over 90% of all samples, were removed. 515 high quality MetaCyc pathways were kept for further analysis. • KEGG pathway identification: HUMAnN2 identified 160 KEGG pathways from the dataset. Quantile normalization was applied, and low abundance pathways were removed. 66 high quality KEGG pathways were kept for further analysis.
• Species differential abundance analysis: The time effect of OCA treatment was studied on three OCA dose groups separately using Friedman rank test. The dose effect of OCA treatment was studied on three time point separately, and Kruskal-Wallis test was used. • Gene differential abundance analysis: For each of the most varying genes, repeated-measure ANOVA was performed to study the time effect and OCA dose effect on gene abundance change. […]

[2] = Calculated small intestinal luminal concentration of OCA; parameters: species or system human
[3] = target: T1, farnesoid X receptor (FXR) (Homo sapiens, UniProt Q96RI1); details: cited from earlier work
T1 sequence (Q96RI1 1-486): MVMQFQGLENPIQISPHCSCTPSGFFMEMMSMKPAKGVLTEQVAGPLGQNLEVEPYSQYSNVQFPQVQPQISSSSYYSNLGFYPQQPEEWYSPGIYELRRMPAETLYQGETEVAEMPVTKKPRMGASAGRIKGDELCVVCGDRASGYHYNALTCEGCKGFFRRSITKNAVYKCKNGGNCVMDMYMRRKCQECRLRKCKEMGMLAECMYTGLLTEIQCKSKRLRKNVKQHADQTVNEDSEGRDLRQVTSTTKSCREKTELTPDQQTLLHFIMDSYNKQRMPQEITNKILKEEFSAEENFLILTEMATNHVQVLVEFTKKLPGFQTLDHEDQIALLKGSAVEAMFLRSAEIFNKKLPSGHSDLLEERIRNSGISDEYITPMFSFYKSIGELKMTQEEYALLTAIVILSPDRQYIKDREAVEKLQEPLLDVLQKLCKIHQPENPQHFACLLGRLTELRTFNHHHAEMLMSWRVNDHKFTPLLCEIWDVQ

- glycosyl transferase genes in the presence of OCA ([1]; in vivo): significantly increased
- calculated physiologic level that would be encountered in the human small intestine [2]: approximately 12 micromolar
SMILES: CC[C@H]1[C@@H](O)[C@@H]2[C@H](CC[C@]3(C)[C@@H]([C@H](C)CCC(=O)O)CC[C@@H]23)[C@@]2(C)CC[C@@H](O)C[C@@H]12 [OCA, 3α,7α-dihydroxy-6α-ethyl-5β-cholan-24-oic acid]
- number of genes with significant time-dependent effects in response to OCA treatment ([1]; Uniref90 high stringency genomic analysis, eight bacterial species): 782
- representation of bacterial transposase genes ([1]; all three OCA doses): robust increase
- OCA dose effect on gene abundance ([1]; repeated measure ANOVA, FDR<0.05): No OCA dose effect or OCA dose×day interaction was observed
- number of genes differentially abundant over time ([1]; repeated measure ANOVA, FDR<0.05 for time effect): 112
- potency as FXR agonist relative to the endogenous FXR agonist CDCA [3]: 100 fold
